Test results reported in patent publication US5028715A, “Radioprotective agents and their method of manufacture” (priority 1989, dated 1991).
Read-outs that look alike come from different tables or passages of the source.

Tests used:
Assay type in all cases: in vivo
test mice [1] = assay: Acute toxicity in mice (Table I); conditions: vehicle H2O
Protocol: (§1) Radioprotective Agents A, B, C, and D were tested for acute toxicity and radioprotective activity using test mice at various dosage levels against LD100 of γ-radiation. The agents were administered interperitoneally (ip).

[2] = Acute toxicity in mice (Table I); conditions: mouse, in vivo; for survival: read-out: Survivors (%); for LD50: mice, ip
Protocol: as §1

test mice [3] = assay: Radioprotective activity in mice against LD100 of γ-radiation (1000 RAD) (Table II); conditions: for protection against LD100 dose of irradiation (in words): dose level near the LD50 (50 mg/kg), all the mice survived; for toxicity (in words): at the levels used in this test
[4] = 55.1 mg/kg ip, 0 min before 1000 RAD
[5] = 110.3 mg/kg ip, 0 min before 1000 RAD
[6] = 220.6 mg/kg ip, 0 min before 1000 RAD
[7] = 441 mg/kg ip, 0 min before 1000 RAD
[8] = 54.3 mg/kg ip, 30 min before 1000 RAD
[9] = 109 mg/kg ip, 30 min before 1000 RAD
[10] = 217 mg/kg ip, 30 min before 1000 RAD
[11] = 435 mg/kg ip, 30 min before 1000 RAD
[12] = 18.75 mg/kg ip, 30 min before 1000 RAD
[13] = 37.5 mg/kg ip, 30 min before 1000 RAD
[14] = 75 mg/kg ip, 30 min before 1000 RAD
[15] = 150 mg/kg ip, 30 min before 1000 RAD
[16] = 300 mg/kg ip, 30 min before 1000 RAD
[17] = 300 mg/kg po, 30 min before 1000 RAD
[18] = 600 mg/kg po, 30 min before 1000 RAD
[19] = 1200 mg/kg po, 30 min before 1000 RAD

Row | SMILES | Deaths (test mice [1]; 75 mg/kg ip) | Deaths (test mice [1]; 150 mg/kg ip) | Deaths (test mice [1]; 300 mg/kg ip) | survival ([2]; 37.5 mg/kg ip, vehicle H2O) | survival ([2]; 75 mg/kg ip, vehicle H2O) | survival ([2]; 150 mg/kg ip, vehicle H2O) | survival ([2]; 300 mg/kg ip, vehicle H2O) | LD50 [2] | protection against LD100 dose of irradiation (in words) (test mice [3]) | Deaths (test mice [1]; 600 mg/kg ip) | survival ([2]; 600 mg/kg ip, vehicle H2O) | Drug Related Lethality (test mice [3]; [14]) | Survivors (%) (test mice [3]; [14]) | toxicity (in words) (test mice [3]) | further results
1 | NCCCN1CCSC1c1ccc2c(c1)OCO2 (stereo not drawn) [D] | 5/5 | 5/5 | 5/5 | 100% | 0% | 0% | 0% | 50 mg/kg | complete protection |  |  |  |  |  | Deaths (test mice [1]; 37.5 mg/kg ip): 0/5; Drug Related Lethality (test mice [3]; [4]): 0/5; Survivors (%) (test mice [3]; [4]): 100%; Drug Related Lethality (test mice [3]; [5]): 5/5; Survivors (%) (test mice [3]; [5]): 0%; Drug Related Lethality (test mice [3]; [6]): 5/5; Survivors (%) (test mice [3]; [6]): 0%; Drug Related Lethality (test mice [3]; [7]): 5/5; Survivors (%) (test mice [3]; [7]): 0%
2 | COc1ccc(C2SCCN2CCCN)cc1OC (stereo not drawn) [C] | 5/5 | 5/5 | 5/5 | 100% | 0% | 0% | 0% | 50 mg/kg | complete protection |  |  |  |  |  | mortality ([2]; 37.5 mg/kg ip, vehicle H2O, read-out: Deaths): 50%; Drug Related Lethality (test mice [3]; [8]): 0/5; Survivors (%) (test mice [3]; [8]): 100%; Drug Related Lethality (test mice [3]; [9]): 5/5; Survivors (%) (test mice [3]; [9]): 0%; Drug Related Lethality (test mice [3]; [10]): 5/5; Survivors (%) (test mice [3]; [10]): 0%; Drug Related Lethality (test mice [3]; [11]): 5/5; Survivors (%) (test mice [3]; [11]): 0%
3 | COc1ccc(C2SCCN2CCCN)cc1 (stereo not drawn) [B] | 0/5 | 4/5 | 5/5 |  | 100% | 20% | 0% |  |  | 5/5 | 0% | 0/10 | 20% | toxic | Drug Related Lethality (test mice [3]; [12]): 0/10; Survivors (%) (test mice [3]; [12]): 0%; Drug Related Lethality (test mice [3]; [13]): 0/10; Survivors (%) (test mice [3]; [13]): 0%
4 | NCCCN1CCSC1c1ccc([N+](=O)[O-])cc1 (stereo not drawn) [A] | 0/5 | 0/5 | 2/5 |  | 100% | 100% | 60% |  |  | 5/5 | 0% | 0/10 | 20% | toxic | Drug Related Lethality (test mice [3]; [15]): 0/10; Survivors (%) (test mice [3]; [15]): 30%; Drug Related Lethality (test mice [3]; [16]): 5/10; Survivors (%) (test mice [3]; [16]): 40%; Drug Related Lethality (test mice [3]; [17]): 0/10; Survivors (%) (test mice [3]; [17]): 0%; Drug Related Lethality (test mice [3]; [18]): 0/10; Survivors (%) (test mice [3]; [18]): 0%; Drug Related Lethality (test mice [3]; [19]): 7/10; Survivors (%) (test mice [3]; [19]): 0%
